Drawing on a melting point compilation (Tetko et al.; mined from patent text by program, amines drawn as free bases though some values may be those of a salt), this text covers melting point for 63 compounds.

Usually melting point stands for the temperature, or range, at which the solid turns liquid.

Where only a bound is given, the exact number is not on record here.

The compound `CC(=O)OCCCN(C)CCN(C)C(=O)[C@@H]1CCCN1S(=O)(=O)c1ccc(Cl)c(COc2cccc3c(-n4ccnc4)cc(C)nc23)c1Cl` displayed a melting point of 75 °C. As to `CCOC(=O)c1cnn(-c2cc(C)cc(C)c2)c1N`, the melting point fell in the range of 113 to 114 °C. The value for `Cc1ncc([N+](=O)[O-])n1CCN1C(=O)c2cccc([N+](=O)[O-])c2C1=O` was 175 to 176 °C; that for `COc1nc(C)c(C)nc1N(C)C(=O)N1CCN(c2cc(F)cc(F)c2)CC1` was 104 to 106 °C. The value for `COCOCc1nc(N)c2ncc(OC)nc2n1` was 193 to 195 °C; that for `O=C(CCNC(=O)[C@H](Cc1ccc(-c2ccccc2)cc1)NCP(=O)(Oc1ccccc1)Oc1ccccc1)OCc1ccccc1` was 83 to 84 °C. As for `COc1ccc(-c2c(-c3ccc(S(N)(=O)=O)cc3)[nH]c3ccccc23)cc1`, the melting point lay within 280 to 282 °C. As for `CCN(CC)c1ccc2cc(C(=O)O)c(=O)oc2c1`, the melting point fell in the range of 227 to 229 °C. The value for `COC(=O)c1ccc(CCSC(C)=O)s1` was 67 to 68 °C.

`CN(Cc1cc2cc([N+](=O)[O-])ccc2o1)C1Cc2ccc([N+](=O)[O-])cc2C1` (stereo not drawn) registered a melting point of 109 to 111 °C. In the case of `Cc1ccc(-c2nc(CCC(=O)c3ccc(Br)s3)c(C)o2)cc1`, the melting point was 118 to 119 °C.

In the case of `O=Cc1ccccc1Oc1ccc(Cl)cc1[N+](=O)[O-]`, the melting point lay in the range of 100 to 101 °C. With `O=C1c2ccc(N3CCCCC3)cc2C(=O)c2cc3ccccc3cc21`, the melting point fell in the range of 230 to 233 °C. The value for `CS(=O)(=O)c1ccc(-c2c(F)c(F)c(F)c(F)c2-c2ccc(F)cc2)cc1` was 134 to 135 °C; that for `CC(=O)NC[C@H]1CN(c2ccc3c(c2)CCSCC3=O)C(=O)O1` was 232 to 233 °C; that for `COc1ccc2c(c1)C(CCNC(C)=O)CN(Cc1ccccc1)C2` (stereo not drawn) was 123 to 125 °C. Regarding `COCCOn1nnc2ccc(Cn3ccnc3)cc21`, the melting point was found to be 77 °C. The value for `CN(C(=O)c1ccc(Cl)c(Cl)c1)c1ccc(Cl)cc1CCC(=O)O` was 159 to 160 °C; that for `O=C1c2ccccc2CCn2c(SC(F)(F)F)ccc21` was 95 to 95.5 °C. Next, `Cc1sc(-c2ccccc2)nc1COc1ccc(CO)cc1`: 94 to 95 °C. Next, `CC(C)(C)OC(=O)c1ccc(N2CCC(N)CC2)cc1`: 89 to 91 °C; `C[C@H]1CCCN(C(=O)[C@H]2Cc3cc(N4CCCCC4)ccc3N2c2cccnn2)C1`: 226 to 228 °C; `O=c1oc(OCCBr)c(Cl)c2ccc(NC(=S)Nc3ccccc3)cc12`: 157 to 158 °C. `O=c1[nH]cnc2cc3c(cc12)OCCO3` had a melting point of 275 °C. Next, `CNS(=O)(=O)Cc1ccc2[nH]cc(CCN=CNc3cccnc3)c2c1`: 70 to 71 °C; `CC1(C)COS(=O)Oc2ccc(OS(C)(=O)=O)cc21` (stereo not drawn): 96 to 98 °C. Next, `CC/C(=N\OC(F)F)c1ccc(Cl)c2nc3n(c12)CCCN3c1c(C)nc(OC)nc1C`: 199 to 200 °C; `O=P(O)(O)Oc1cccc(-c2nc3sccn3c2-c2cccc(N[C@@H]3CCCN(S(=O)(=O)c4ccc(Cl)cc4)C3)c2)c1`: 239 to 245 °C. Compound `Cc1n[nH]c(/C=C/c2ccccc2)n1` came in with a melting point of 131 to 134 °C.

For `CS(=O)(=O)Nc1c(CC(=O)O)cccc1Oc1ccccc1Cl`, the melting point was in the range of 159 to 163 °C. The value for `CCCOc1c(OCCCN2C(=O)c3ccccc3C2=O)cc(C2CCC(c3cc(OC)c(OC)c(OC)c3)O2)cc1S(=O)(=O)CCC` (stereo not drawn) was 195 to 196 °C; that for `NNC(=O)C[C@H](O)COCc1ccccc1` was 96.9 °C.

Turning to `CN(C(=O)CCCOc1ccc2c(c1)CN1CC(=O)NC1=N2)C1CCCCC1`, the melting point is 243 to 244 °C. The value for `CCOC(=O)N1CCN(C2Cc3ccccc3Sc3cc(Cl)c(Cl)cc32)CC1` (stereo not drawn) was 184 to 186 °C; that for `Cc1nc(NC(CO)C(C)C)c2c(n1)c(C)nn2C` (stereo not drawn) was 166 to 168 °C. Next, `CCCN(CCC)C(=O)CCn1c(-c2ccc(Cl)cc2)nc2cccnc21`: 104 to 106 °C. Turning to `Cc1c(NC(=O)CC(C)(C)C)cc2c(c1C)OC(C)(C)C2(O)c1ccccc1` (stereo not drawn), the melting point was 109 to 111 °C.

The compound `COC1=C(c2ccccc2)C(CC(=O)O)OC1=O` (stereo not drawn) had a melting point of 159 to 160 °C. Next, `CCCCCCCCCCCCCCCCCCOc1cc(N)cc(OCc2ccccc2)c1`: 57 to 59 °C; `CCOC(=O)c1cnn(-c2cc(Cl)cc(Cl)c2)c1C(N)=O`: 164 to 166 °C; `O=C(c1ccc(F)cc1)N1CCN(S(=O)(=O)c2ccc(Nc3ccnc4cc(Cl)ccc34)cc2)CC1`: 235 to 237 °C. Next, `CCCc1n[nH]c2c(=O)[nH]c(-c3cc(S(=O)(=O)N4CCN(C)CC4)ccc3OCC)nc12`: 236 to 239 °C; `CC(CS)C(=O)N(CC(=O)O)c1ccccc1` (stereo not drawn): 168 to 170 °C. `CCCCCCc1ccc(C(=O)Oc2ccc(C(=O)O)cc2)cc1` yielded a melting point of 162 °C. The value for `CCOC(=O)c1cc(Cl)nc(Cl)n1` was 31.6 °C; that for `CC(O)(C(=O)Nc1ccc(S(=O)(=O)c2ccccc2)cc1[N+](=O)[O-])C(F)(F)F` (stereo not drawn) was 191 to 192 °C. As to `CC(=O)NCc1cc(C(C)=O)ccc1Cl`, the melting point lay within 93.1 to 93.7 °C. The value for `CC(C)N1Cc2c(Cl)nc(Cl)nc2C1=O` was 122 to 123 °C. The value for `COc1ccc(C(=O)c2ccc(CC(=O)O)n2C)cc1` was 170 to 171 °C; that for `COC(=O)C=C1CC(NC(=O)OC(C)(C)C)C1` (stereo not drawn) was 79 to 82 °C. As for `Cc1cccc(N2CCOC2=O)c1CNc1cccn2c(Cl)c(C)nc12`, the melting point was 137 to 139 °C. Turning to `CC(C)(C)OC(=O)N1CC=C(c2ccc3oc(-c4ccc(S(C)(=O)=O)cc4F)nc3c2)CC1`, the melting point lay in the range of 149 to 151 °C. Next, `CCOC(=O)C(C=O)Cc1ccc(OC)nc1` (stereo not drawn): 91.5 to 94 °C; `COC(=O)C1CCC(C)(C(=O)c2ccc(OC)cc2OC)C1(C)C` (stereo not drawn): 108 °C; `COc1ccc(F)c(CC2CCN([C@H]3CC[C@H](c4ccc5c(c4)OCO5)CC3)CC2)c1`: 89 to 91 °C. On to `O=Cc1cc(Cl)cc(C=O)n1`, for which the melting point came out at 163 °C.

Compound `CC1=C(C(=O)OCCOc2ccccc2)C(c2ccccc2C(F)(F)F)c2c(ccnc2OC(C)C)N1` (stereo not drawn) registered a melting point of 110 to 113 °C. Compound `CCOP(=O)(OCC)c1cc2c(c(C)c1-c1c(OC)ccc3ccccc13)COC2` yielded a melting point of 136 to 138 °C. Compound `O=C1c2ccccc2OC2=CCON12` gave a melting point of 144 to 148 °C. `CC(C)(C)Cn1c(=O)c(C#N)c(N2CCN(C(=O)c3cccs3)CC2)c2cccnc21` displayed a melting point of 232 °C.

The compound `NC(=O)c1ccc(-c2cccc3cc(Cc4cccc(C(F)(F)F)c4)sc23)nc1` showed a melting point of 222 to 223 °C. In turn, `COC1=CCC2=C(CC[C@H]3[C@@H]4CCC(=O)[C@@]4(C)CC[C@]23C)C1` came in with a melting point of 155 to 158 °C. The value for `CCNc1nc(C)c(C(=O)OCC)c(NCCCN(C)C)c1[N+](=O)[O-]` was < 20 °C.
